Legend:
[1] = tested on: corn; experiment: Test B pre/postemergence corn; assay type: in vivo, Zea mays
How it was run: (§1)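 Response is a visual 0-to-10 score relative to untreated plants, where 0 means no effect and 10 means complete control, taken twelve to sixteen days after application. Treatments went onto soil at planting and onto foliage of 1- to 4-leaf plants, using a surfactant-containing non-phytotoxic solvent.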

[2] = tested on: sugar beet; experiment: Test B pre/postemergence sugar beet; assay type: in vivo, Beta vulgaris
How it was run: as §1

[3] = tested on: blackgrass; experiment: Test B pre/postemergence blackgrass; assay type: in vivo, Alopecurus myosuroides
How it was run: as §1

[4] = tested on: purple nutsedge; experiment: Test B pre/postemergence purple nutsedge; assay type: in vivo, Cyperus rotundus
How it was run: as §1

[5] = tested on: velvetleaf; experiment: Test B pre/postemergence velvetleaf; assay type: in vivo, Abutilon theophrasti
How it was run: as §1

[6] = tested on: cocklebur; experiment: Test B pre/postemergence cocklebur; assay type: in vivo, Xanthium strumarium
How it was run: as §1

[7] = tested on: morningglory; experiment: Test B pre/postemergence morningglory; assay type: in vivo, Ipomoea hederacea
How it was run: as §1

[8] = tested on: surinam grass; experiment: Test B pre/postemergence surinam grass; assay type: in vivo, Brachiaria decumbens
How it was run: as §1

[9] = tested on: rape; experiment: Test B pre/postemergence rape; assay type: in vivo, Brassica napus
How it was run: as §1

[10] = tested on: soybean; experiment: Test B pre/postemergence soybean; assay type: in vivo, Glycine max
How it was run: as §1

[11] = tested on: crabgrass; experiment: Test B pre/postemergence crabgrass; assay type: in vivo, Digitaria sanguinalis
How it was run: as §1

[12] = tested on: wild oat; experiment: Test B pre/postemergence wild oat; assay type: in vivo, Avena fatua
How it was run: as §1

[13] = tested on: giant foxtail; experiment: Test B pre/postemergence giant foxtail; assay type: in vivo, Setaria faberii
How it was run: as §1

[14] = tested on: bedstraw; experiment: Test B pre/postemergence bedstraw; assay type: in vivo, Galium aparine
How it was run: as §1

[15] = tested on: wheat; experiment: Test B pre/postemergence wheat; assay type: in vivo, Triticum aestivum
How it was run: as §1

[16] = tested on: pigweed; experiment: Test B pre/postemergence pigweed; assay type: in vivo, Amaranthus retroflexus
How it was run: as §1

[17] = Postemergence, Rate 62 g/ha, scale of 0 to 10, 0 is no effect, 10 is complete control
[18] = Postemergence, Rate 125 g/ha, scale 0 to 10, 0 is no effect, 10 is complete control
[19] = Postemergence, Rate 500 g/ha, scale 0 to 10, 0 is no effect, 10 is complete control
[20] = Preemergence, Rate 62 g/ha, scale 0 to 10 (0 no effect, 10 complete control)
[21] = Preemergence, Rate 125 g/ha, scale 0 to 10, 0 is no effect, 10 is complete control
[22] = Preemergence, Rate 500 g/ha, scale of 0 to 10 where 0 is no effect and 10 is complete control
[23] = Rate 250 g/ha, Postemergence, scale of 0 to 10 where 0 is no effect and 10 is complete control
[24] = Preemergence, Rate 62 g/ha, scale of 0 to 10 where 0 is no effect and 10 is complete control
[25] = Preemergence, Rate 125 g/ha, scale of 0 to 10 where 0 is no effect and 10 is complete control
[26] = Preemergence, Rate 250 g/ha, scale 0 to 10 (0 no effect, 10 complete control)

CC(C)N(C(=O)n1oc(=O)n(CCCC(F)(F)F)c1=O)c1ccc(Cl)cc1 [Compound 555]
4: Plant response rating, Velvetleaf [5, 19] | Plant response rating, B. signalgrass [8, 19] | Rape plant response rating [9, 17]
7: Wild oats plant response rating [12, 22] | Redroot pigweed plant response rating [16, 22]
3: Plant response rating, Cocklebur [6, 19] | Wheat plant response rating [15, 22] | Redroot pigweed plant response rating (0 to 10 scale) ([16]; Preemergence, Rate 250 g/ha)
1: Morningglory plant response rating [7, 17] | Soybean plant response rating [10, 17]
2: Corn plant response rating [1, 22] | Sugarbeets plant response rating [2, 20] | Blackgrass plant response rating [3, 18] | Plant response rating, Blackgrass [3, 23] | Plant response rating, Velvetleaf [5, 23] | Cocklebur plant response rating (0 to 10 scale) ([6]; Preemergence, Rate 250 g/ha) | Morningglory plant response rating [7, 18] | Plant response rating, Soybean [10, 19] | Soybean plant response rating [10, 22] | Plant response rating, Soybean [10, 23] | Plant response rating, Wild oats [12, 19] | Bedstraw plant response rating [14, 17] | Plant response rating, Wheat [15, 19] | Wheat plant response rating (0 to 10 scale) ([15]; Preemergence, Rate 250 g/ha) | Plant response rating, Redroot pigweed [16, 19] | Plant response rating, Redroot pigweed [16, 23]
6: Velvetleaf plant response rating [5, 22] | Plant response rating, Morningglory [7, 19] | B. signalgrass plant response rating [8, 20] | Wheat plant response rating [15, 17]
8: Blackgrass plant response rating [3, 22] | B. signalgrass plant response rating [8, 22] | Plant response rating, Giant foxtail [13, 19] | Plant response rating, Giant foxtail [13, 23]
10: Plant response rating, Crabgrass [11, 19] | Crabgrass plant response rating (0 to 10 scale) ([11]; Preemergence, Rate 250 g/ha) | Crabgrass plant response rating [11, 22] | Giant foxtail plant response rating [13, 21] | Giant foxtail plant response rating (0 to 10 scale) ([13]; Preemergence, Rate 250 g/ha) | Giant foxtail plant response rating [13, 22]
0: Corn plant response rating [1, 17] | Corn plant response rating [1, 18] | Plant response rating, Corn [1, 19] | Corn plant response rating [1, 20] | Corn plant response rating [1, 21] | Corn plant response rating (0 to 10 scale) ([1]; Preemergence, Rate 250 g/ha) | Plant response rating, Corn [1, 23] | Sugarbeets plant response rating [2, 17] | Plant response rating, Sugarbeets [2, 19] | Plant response rating, Sugarbeets [2, 23] | Blackgrass plant response rating [3, 17] | Blackgrass plant response rating [3, 20] | Blackgrass plant response rating [3, 21] | Blackgrass plant response rating (0 to 10 scale) ([3]; Preemergence, Rate 250 g/ha) | Nutsedge plant response rating [4, 17] | Nutsedge plant response rating [4, 18] | Plant response rating, Nutsedge [4, 19] | Nutsedge plant response rating [4, 20] | Nutsedge plant response rating [4, 21] | Nutsedge plant response rating (0 to 10 scale) ([4]; Preemergence, Rate 250 g/ha) | Nutsedge plant response rating [4, 22] | Plant response rating, Nutsedge [4, 23] | Velvetleaf plant response rating [5, 17] | Velvetleaf plant response rating [5, 20] | Velvetleaf plant response rating [5, 21] | Velvetleaf plant response rating (0 to 10 scale) ([5]; Preemergence, Rate 250 g/ha) | Cocklebur plant response rating [6, 17] | Cocklebur plant response rating [6, 18] | Cocklebur plant response rating [6, 20] | Cocklebur plant response rating [6, 21] | Plant response rating, Cocklebur [6, 23] | Morningglory plant response rating [7, 20] | Morningglory plant response rating [7, 21] | Morningglory plant response rating (0 to 10 scale) ([7]; Preemergence, Rate 250 g/ha) | Morningglory plant response rating [7, 22] | B. signalgrass plant response rating [8, 17] | B. signalgrass plant response rating [8, 18] | Plant response rating, B. signalgrass [8, 23] | Rape plant response rating [9, 20] | Rape plant response rating [9, 21] | Rape plant response rating (0 to 10 scale) ([9]; Preemergence, Rate 250 g/ha) | Rape plant response rating [9, 22] | Soybean plant response rating [10, 20] | Soybean plant response rating [10, 21] | Soybean plant response rating (0 to 10 scale) ([10]; Preemergence, Rate 250 g/ha) | Crabgrass plant response rating [11, 17] | Crabgrass plant response rating [11, 18] | Wild oats plant response rating [12, 17] | Wild oats plant response rating [12, 20] | Wild oats plant response rating [12, 21] | Wild oats plant response rating (0 to 10 scale) ([12]; Preemergence, Rate 250 g/ha) | Plant response rating, Wild oats [12, 23] | Giant foxtail plant response rating [13, 17] | Giant foxtail plant response rating [13, 18] | Bedstraw plant response rating [14, 20] | Bedstraw plant response rating [14, 21] | Bedstraw plant response rating (0 to 10 scale) ([14]; Preemergence, Rate 250 g/ha) | Bedstraw plant response rating [14, 22] | Wheat plant response rating [15, 20] | Wheat plant response rating [15, 21] | Plant response rating, Wheat [15, 23] | Redroot pigweed plant response rating [16, 17] | Redroot pigweed plant response rating [16, 20] | Redroot pigweed plant response rating [16, 21]
5: Sugarbeets plant response rating [2, 21] | Sugarbeets plant response rating [2, 22] | Plant response rating, Blackgrass [3, 19] | Plant response rating, Morningglory [7, 23] | Rape plant response rating [9, 18] | Plant response rating, Rape [9, 19]
9: Cocklebur plant response rating [6, 22] | Crabgrass plant response rating [11, 20] | Crabgrass plant response rating [11, 21] | Plant response rating, Crabgrass [11, 23] | Giant foxtail plant response rating [13, 20] | Bedstraw plant response rating [14, 18] | Plant response rating, Bedstraw [14, 23]

CC(C)N(C(=O)n1oc(=O)n(C(C)C(=O)N2CCOCC2)c1=O)c1ccc(Cl)cc1 (stereo not drawn) [Compound 703]
0: Corn plant response rating [1, 24] | Plant response rating, Corn [1, 25] | Plant response rating, Corn [1, 26] | Sugarbeets plant response rating [2, 24] | Plant response rating, Sugarbeets [2, 25] | Blackgrass plant response rating [3, 24] | Nutsedge plant response rating [4, 24] | Plant response rating, Nutsedge [4, 25] | Velvetleaf plant response rating [5, 24] | Plant response rating, Velvetleaf [5, 25] | Cocklebur plant response rating [6, 24] | Plant response rating, Cocklebur [6, 25] | Plant response rating, Cocklebur [6, 26] | Plant response rating, Cocklebur [6, 22] | Morningglory plant response rating [7, 24] | Plant response rating, Morningglory [7, 25] | Rape plant response rating [9, 24] | Plant response rating, Rape [9, 25] | Soybean plant response rating [10, 24] | Plant response rating, Soybean [10, 25] | Wild oats plant response rating [12, 24] | Plant response rating, Wild oats [12, 25] | Bedstraw plant response rating [14, 24] | Plant response rating, Bedstraw [14, 25] | Plant response rating, Bedstraw [14, 26] | Plant response rating, Bedstraw [14, 22] | Wheat plant response rating [15, 24] | Plant response rating, Wheat [15, 25] | Redroot pigweed plant response rating [16, 24]
4: Plant response rating, Redroot pigweed [16, 25]
2: B. signalgrass plant response rating [8, 24]
8: Plant response rating, Blackgrass [3, 22] | Plant response rating, B. signalgrass [8, 22] | Plant response rating, Crabgrass [11, 25]
6: Plant response rating, Blackgrass [3, 26]
5: Crabgrass plant response rating [11, 24] | Giant foxtail plant response rating [13, 24]
3: Plant response rating, Blackgrass [3, 25] | Plant response rating, B. signalgrass [8, 25] | Plant response rating, B. signalgrass [8, 26]
7: Plant response rating, Giant foxtail [13, 25]
9: Plant response rating, Crabgrass [11, 26]

CCC(C)N(C(=O)n1oc(=O)n(C(C)C)c1=O)c1ccc(F)cc1 (stereo not drawn) [Compound 689]
7: Wild oats plant response rating [12, 24] | Plant response rating, Bedstraw [14, 26] | Plant response rating, Redroot pigweed [16, 25]
5: Plant response rating, Bedstraw [14, 22]
6: Plant response rating, Corn [1, 25]
2: Plant response rating, Sugarbeets [2, 25] | Velvetleaf plant response rating [5, 24] | B. signalgrass plant response rating [8, 24]
10: Plant response rating, Blackgrass [3, 26] | Plant response rating, Blackgrass [3, 22] | Plant response rating, B. signalgrass [8, 22] | Plant response rating, Crabgrass [11, 26] | Giant foxtail plant response rating [13, 24] | Plant response rating, Giant foxtail [13, 25]
0: Corn plant response rating [1, 24] | Sugarbeets plant response rating [2, 24] | Nutsedge plant response rating [4, 24] | Plant response rating, Nutsedge [4, 25] | Cocklebur plant response rating [6, 24] | Plant response rating, Cocklebur [6, 25] | Plant response rating, Cocklebur [6, 26] | Plant response rating, Cocklebur [6, 22] | Morningglory plant response rating [7, 24] | Rape plant response rating [9, 24] | Plant response rating, Rape [9, 25] | Soybean plant response rating [10, 24] | Plant response rating, Soybean [10, 25] | Bedstraw plant response rating [14, 24] | Plant response rating, Bedstraw [14, 25] | Wheat plant response rating [15, 24] | Plant response rating, Wheat [15, 25]
3: Plant response rating, Velvetleaf [5, 25] | Plant response rating, Morningglory [7, 25] | Redroot pigweed plant response rating [16, 24]
9: Plant response rating, Corn [1, 26] | Blackgrass plant response rating [3, 24] | Plant response rating, Blackgrass [3, 25] | Plant response rating, B. signalgrass [8, 26] | Crabgrass plant response rating [11, 24] | Plant response rating, Crabgrass [11, 25] | Plant response rating, Wild oats [12, 25]
4: Plant response rating, B. signalgrass [8, 25]
